Experimental data reported in article PMC7561186, “Rational design of balanced dual-targeting antibiotics with limited resistance” (PLoS Biology, 2020).
≈ marks a conversion by molar mass, not a printed value. Read-outs that look alike come from different tables or passages of the source.

System: S. aureus clinical isolates
Test: microbe, parasite or virus in culture
Type: cell-based
Conditions: Staphylococcus aureus, read-out: MIC

Cc1onc(-c2ccccc2)c1C(=O)N[C@@H]1C(=O)N2[C@@H]1SC(C)(C)[C@@H]2C(=O)O [Oxacillin]
MIC (ATCC 29213 / MSSA, S. aureus ATCC 29213, MSSA / VSSA, test date 2018-10-25 (three repeat lines)): 0.25 µg/mL (≈ 0.623 µM) | MIC (ATCC 29213 / MSSA, S. aureus ATCC 29213, MSSA / VSSA, test date 2018-11-07): 0.25 µg/mL (≈ 0.623 µM) | MIC (MRSA / NRS 3 / VISA, S. aureus IHMA 1308243, NRS3, MRSA / VISA): > 64 µg/mL | MIC (MRSA / NRS 4 / VISA, S. aureus IHMA 649380, NRS4, MRSA / VISA): > 64 µg/mL | MIC (MRSA / NRS 18 / VISA, S. aureus IHMA 649386, NRS18, MRSA / VISA): 64 µg/mL (≈ 159 µM) | MIC (MRSA / NRS 19 / VISA, S. aureus IHMA 649387, NRS19, MRSA / VISA): > 64 µg/mL | MIC (MRSA / NRS 21 / VISA, S. aureus IHMA 649388, NRS21, MRSA / VISA): > 64 µg/mL | MIC (MRSA / NRS 22 / USA600 / VISA, S. aureus IHMA 649389, NRS22, MRSA / VISA, USA600): 16 µg/mL (≈ 39.9 µM) | MIC (MRSA / NRS 23 / VISA, S. aureus IHMA 649390, NRS23, MRSA / VISA): > 64 µg/mL | MIC (MRSA / NRS 24 / VISA, S. aureus IHMA 649391, NRS24, MRSA / VISA): > 64 µg/mL | MIC (MRSA / NRS 26, S. aureus IHMA 649392, NRS26, MRSA / VSSA): > 64 µg/mL | MIC (MRSA / NRS 27 / VISA, S. aureus IHMA 1308248, NRS27, MRSA / VISA): > 64 µg/mL | MIC (MRSA / NRS 29 / VISA, S. aureus IHMA 1308250, NRS29, MRSA / VISA): > 64 µg/mL | MIC (MRSA / NRS 37 / VISA, S. aureus IHMA 1308251, NRS37, MRSA / VISA): 8 µg/mL (≈ 19.9 µM) | MIC (MRSA / NRS 54, S. aureus IHMA 1308253, NRS54, MRSA / VSSA* (*Expected VAN intermediate, confirmed VAN susceptible twice), test date 2018-11-07): > 64 µg/mL | MIC (MRSA / NRS 56 / VISA, S. aureus IHMA 1308254, NRS56, MRSA / VISA): > 64 µg/mL | MIC (MRSA / USA100 / VRSA, S. aureus IHMA 672230, VRS1, MRSA / VRSA, USA100): > 64 µg/mL | MIC (MRSA / USA100 / VRSA, S. aureus IHMA 672231, VRS2, MRSA / VRSA, USA100): > 64 µg/mL | MIC (MRSA / USA100 / VRSA, S. aureus IHMA 672234, VRS4, MRSA / VRSA, USA100): > 64 µg/mL | MIC (MRSA / USA100 / VRSA, S. aureus IHMA 672235, VRS5, MRSA / VRSA, USA100): > 64 µg/mL | MIC (MRSA / USA100 / VRSA, S. aureus IHMA 672237, VRS7, MRSA / VRSA, USA100): > 64 µg/mL | MIC (MRSA / USA100 / VRSA, S. aureus IHMA 672238, VRS8, MRSA / VRSA, USA100): > 64 µg/mL | MIC (MRSA / USA100 / VRSA, S. aureus IHMA 672239, VRS9, MRSA / VRSA, USA100): > 64 µg/mL | MIC (MRSA / USA100 / VRSA, S. aureus IHMA 1308256, VRS10, MRSA / VRSA, USA100): > 64 µg/mL | MIC (MRSA / USA100 / VRSA, S. aureus IHMA 1308258, VRS11b, MRSA / VRSA, USA100): 16 µg/mL (≈ 39.9 µM) | MIC (MRSA / USA800 / VRSA, S. aureus IHMA 672233, VRS3b, MRSA / VRSA, USA800): > 64 µg/mL | MIC (MRSA, S. aureus IHMA 1569509, MRSA / VSSA): > 64 µg/mL | MIC (MRSA, S. aureus IHMA 1575268, MRSA / VSSA): > 64 µg/mL | MIC (MRSA, S. aureus IHMA 1575629, MRSA / VSSA): 64 µg/mL (≈ 159 µM) | MIC (MRSA, S. aureus IHMA 1577820, MRSA / VSSA): 32 µg/mL (≈ 79.7 µM) | MIC (MRSA, S. aureus IHMA 1580300, MRSA / VSSA): > 64 µg/mL | MIC (MRSA, S. aureus IHMA 1580940, MRSA / VSSA): 32 µg/mL (≈ 79.7 µM) | MIC (MRSA, S. aureus IHMA 1582100, MRSA / VSSA): > 64 µg/mL | MIC (MRSA, S. aureus IHMA 1583795, MRSA / VSSA): > 64 µg/mL | MIC (MRSA, S. aureus IHMA 1584223, MRSA / VSSA): > 64 µg/mL | MIC (MRSA, S. aureus IHMA 1585316, MRSA / VSSA): > 64 µg/mL | MIC (MRSA, S. aureus IHMA 1586780, MRSA / VSSA): 32 µg/mL (≈ 79.7 µM) | MIC (MRSA, S. aureus IHMA 1587322, MRSA / VSSA): > 64 µg/mL | MIC (MRSA, S. aureus IHMA 1588127, MRSA / VSSA): 32 µg/mL (≈ 79.7 µM) | MIC (MRSA, S. aureus IHMA 1591462, MRSA / VSSA): 32 µg/mL (≈ 79.7 µM) | MIC (MRSA, S. aureus IHMA 1592755, MRSA / VSSA): > 64 µg/mL | MIC (MRSA, S. aureus IHMA 1592776, MRSA / VSSA): 32 µg/mL (≈ 79.7 µM) | MIC (MRSA, S. aureus IHMA 1597106, MRSA / VSSA): > 64 µg/mL | MIC (MRSA, S. aureus IHMA 1602095, MRSA / VSSA): 32 µg/mL (≈ 79.7 µM) | MIC (MRSA, S. aureus IHMA 1611170, MRSA / VSSA): 16 µg/mL (≈ 39.9 µM) | MIC (MRSA, S. aureus IHMA 1611612, MRSA / VSSA): > 64 µg/mL | MIC (MRSA, S. aureus IHMA 1612228, MRSA / VSSA): > 64 µg/mL | MIC (MRSA, S. aureus IHMA 1620441, MRSA / VSSA): > 64 µg/mL | MIC (MRSA, S. aureus IHMA 1621638, MRSA / VSSA): 32 µg/mL (≈ 79.7 µM) | MIC (MRSA, S. aureus IHMA 1622252, MRSA / VSSA): > 64 µg/mL | MIC (MRSA, S. aureus IHMA 1622527, MRSA / VSSA): 32 µg/mL (≈ 79.7 µM) | MIC (MRSA, S. aureus IHMA 1666371, MRSA / VSSA): 16 µg/mL (≈ 39.9 µM) | MIC (MRSA, S. aureus IHMA 1695391, MRSA / VSSA): > 64 µg/mL | MIC (MRSA, S. aureus IHMA 1703428, MRSA / VSSA): 64 µg/mL (≈ 159 µM) | MIC (MRSA, S. aureus IHMA 1720350, MRSA / VSSA): 32 µg/mL (≈ 79.7 µM) | MIC (MRSA, S. aureus IHMA 1732989, MRSA / VSSA): > 64 µg/mL | MIC (MRSA, S. aureus IHMA 1742231, MRSA / VSSA): > 64 µg/mL | MIC (MRSA, S. aureus IHMA 1766357, MRSA / VSSA): 32 µg/mL (≈ 79.7 µM) | MIC (MSSA / NRS 12 / VISA, S. aureus IHMA 1308244, NRS12, MSSA / VISA): 0.25 µg/mL (≈ 0.623 µM) | MIC (MSSA / NRS 13 / VISA, S. aureus IHMA 1308245, NRS13, MSSA / VISA): 0.5 µg/mL (≈ 1.25 µM) | MIC (MSSA / NRS 14 / VISA, S. aureus IHMA 1308246, NRS14, MSSA / VISA): 0.25 µg/mL (≈ 0.623 µM) | MIC (MSSA / NRS 17 / VISA, S. aureus IHMA 1308247, NRS17, MSSA / VISA): 2 µg/mL (≈ 4.98 µM) | MIC (MSSA / NRS 28 / VISA, S. aureus IHMA 1308249, NRS28, MSSA / VISA): 2 µg/mL (≈ 4.98 µM) | MIC (MSSA / NRS 52, S. aureus IHMA 1308252, NRS52, MSSA / VSSA* (*Expected VAN intermediate, confirmed VAN susceptible twice), test date 2018-11-07): 0.12 µg/mL (≈ 0.299 µM) | MIC (MSSA / USA100 / VRSA, S. aureus IHMA 672236, VRS6, MSSA / VRSA, USA100): 2 µg/mL (≈ 4.98 µM) | MIC (MSSA, S. aureus IHMA 1563826, MSSA / VSSA): 0.25 µg/mL (≈ 0.623 µM) | MIC (MSSA, S. aureus IHMA 1565492, MSSA / VSSA): 0.25 µg/mL (≈ 0.623 µM) | MIC (MSSA, S. aureus IHMA 1569499, MSSA / VSSA): 1 µg/mL (≈ 2.49 µM) | MIC (MSSA, S. aureus IHMA 1569754, MSSA / VSSA): 1 µg/mL (≈ 2.49 µM) | MIC (MSSA, S. aureus IHMA 1574202, MSSA / VSSA): 2 µg/mL (≈ 4.98 µM) | MIC (MSSA, S. aureus IHMA 1575652, MSSA / VSSA): 1 µg/mL (≈ 2.49 µM) | MIC (MSSA, S. aureus IHMA 1575779, MSSA / VSSA): 0.5 µg/mL (≈ 1.25 µM) | MIC (MSSA, S. aureus IHMA 1576329, MSSA / VSSA): 0.5 µg/mL (≈ 1.25 µM) | MIC (MSSA, S. aureus IHMA 1577800, MSSA / VSSA): 0.5 µg/mL (≈ 1.25 µM) | MIC (MSSA, S. aureus IHMA 1578560, MSSA / VSSA): 0.5 µg/mL (≈ 1.25 µM) | MIC (MSSA, S. aureus IHMA 1580233, MSSA / VSSA): 0.5 µg/mL (≈ 1.25 µM) | MIC (MSSA, S. aureus IHMA 1580925, MSSA / VSSA): 0.5 µg/mL (≈ 1.25 µM) | MIC (MSSA, S. aureus IHMA 1580955, MSSA / VSSA): 0.5 µg/mL (≈ 1.25 µM) | MIC (MSSA, S. aureus IHMA 1582586, MSSA / VSSA): 0.5 µg/mL (≈ 1.25 µM) | MIC (MSSA, S. aureus IHMA 1582691, MSSA / VSSA): 0.25 µg/mL (≈ 0.623 µM) | MIC (MSSA, S. aureus IHMA 1584230, MSSA / VSSA): 0.5 µg/mL (≈ 1.25 µM) | MIC (MSSA, S. aureus IHMA 1587279, MSSA / VSSA): 0.25 µg/mL (≈ 0.623 µM) | MIC (MSSA, S. aureus IHMA 1591459, MSSA / VSSA): 0.25 µg/mL (≈ 0.623 µM) | MIC (MSSA, S. aureus IHMA 1592749, MSSA / VSSA): 0.25 µg/mL (≈ 0.623 µM) | MIC (MSSA, S. aureus IHMA 1592751, MSSA / VSSA): 0.5 µg/mL (≈ 1.25 µM) | MIC (MSSA, S. aureus IHMA 1594297, MSSA / VSSA): 0.5 µg/mL (≈ 1.25 µM) | MIC (MSSA, S. aureus IHMA 1597120, MSSA / VSSA): 0.25 µg/mL (≈ 0.623 µM) | MIC (MSSA, S. aureus IHMA 1597125, MSSA / VSSA): 0.5 µg/mL (≈ 1.25 µM) | MIC (MSSA, S. aureus IHMA 1599157, MSSA / VSSA): 0.5 µg/mL (≈ 1.25 µM) | MIC (MSSA, S. aureus IHMA 1599506, MSSA / VSSA): 0.5 µg/mL (≈ 1.25 µM) | MIC (MSSA, S. aureus IHMA 1602078, MSSA / VSSA): 1 µg/mL (≈ 2.49 µM) | MIC (MSSA, S. aureus IHMA 1604586, MSSA / VSSA): 0.5 µg/mL (≈ 1.25 µM) | MIC (MSSA, S. aureus IHMA 1604609, MSSA / VSSA): 0.25 µg/mL (≈ 0.623 µM) | MIC (MSSA, S. aureus IHMA 1609919, MSSA / VSSA): 0.25 µg/mL (≈ 0.623 µM) | MIC (MSSA, S. aureus IHMA 1622864, MSSA / VSSA): 0.5 µg/mL (≈ 1.25 µM) | MIC (MSSA, S. aureus IHMA 1626392, MSSA / VSSA): 0.5 µg/mL (≈ 1.25 µM) | MIC (MSSA, S. aureus IHMA 1713793, MSSA / VSSA): 0.5 µg/mL (≈ 1.25 µM)
